One series relates to U937 cells. Format: cell-based, human. As to conditions: 7 μg/ml free CPT, 2 h.
The next series deals with SW480 cells. Description: MTT viability assay. Format: cell-based, human. As to conditions: 7 μg/ml free CPT, 2 h.
Series [1] has as its system human PBMC of healthy donors. Type of series: cell-based. As to conditions: 7 μg/ml free CPT, 2 h.
Procedure: For isolation of human peripheral blood mononuclear cells from healthy donors (PBMC) heparinized human peripheral blood was obtained from healthy donors and the mononuclear cells (PBMC) were isolated by the density sedimentation on Histopaque-1077 (400×g, 30 min at RT) and washed and resuspended in RPMI 1640 supplemented with 10% FCS, 2 mM Lglutamine, penicillin (100 U/ml), and streptomycin (100 mg/ml) (30). […] Inhibition of 3-(4, 5-dimethylthiozol-2-yl)-2, 5-diphenyltetrazolium bromide (MTT) reduction to insoluble formazan by mitochondrial dehydrogenase was used as a viability parameter for the cells and compared with untreated control. After treatment with drug for 2 or 4 h the cells were washed with 20 mM PBS and incubated with 2 mg/ml MTT solution for 4 h at 37° C. The reduced formazan was solubilised in DMSO and plates were analyzed by determining the A550 on Thermo [sequence]
Series [2] concerns B16F10 cells. Description: JC-1 mitochondrial membrane potential flow cytometry. Format: cell-based, murine. As to conditions: 7 μg/ml of free CPT, 2 h. Here is the method: Supernatant was carefully removed. 0.5 ml of freshly prepared 5,5′,6,6′-tetrachloro-[…] Iodide (JC-1) working solution containing 1:100 JC-1 stain was added to each pellet. The pellets were resuspended. Cells were incubated in JC-1 working solution for 10-15 min at 37° C. in a CO2 incubator. Cells were washed twice following incubation. Cells were then analyzed by flow cytometry. (BD™ MitoScreen Flow Cytometry Mitochondrial Membrane Potential Detection Kit) (33).
(A flow cytometer gives signals particle by particle.)

A further series relates to rat C6 glioma cells. Conditions: 7 μg/ml free CPT, 2 h.
Series [3] deals with B16F10 cells. Format: cell-based, murine. As to conditions: 2 h.
Procedure: Murine melanoma cell line B16F10, colorectal adenocarcinoma SW480 cell line, human colon carcinoma HCT116 cell line, rat brain astrocytes and rat C6 glioma cell lines were maintained in Dulbecco Modified Eagle Medium (DMEM) supplemented with 10% fetal bovine serum, sodium pyruvate, 2 mM L-glutamine, penicillin, and streptomycin. […] The cells were incubated at 37° C. in a humidified atmosphere of 5% CO2 in air (10).
Inhibition of 3-(4, 5-dimethylthiozol-2-yl)-2, 5-diphenyltetrazolium bromide (MTT) reduction to insoluble formazan by mitochondrial dehydrogenase was used as a viability parameter for the cells and compared with untreated control. After treatment with drug for 2 or 4 h the cells were washed with 20 mM PBS and incubated with 2 mg/ml MTT solution for 4 h at 37° C.
Series [4] concerns Ehrlichs ascites carcinoma cells (EAC). Format: cell-based, mouse. Conditions: 7 μg/ml free CPT, 2 h.
Procedure: (§1) Murine melanoma cell line B16F10, colorectal adenocarcinoma SW480 cell line, human colon carcinoma HCT116 cell line, rat brain astrocytes and rat C6 glioma cell lines were maintained in Dulbecco Modified Eagle Medium (DMEM) supplemented with 10% fetal bovine serum, sodium pyruvate, 2 mM L-glutamine, penicillin, and streptomycin. Murine macrophage cell line RAW 264.7, MOLT-4 cell line (derived from human acute lymphoblastic leukemia), human leukemia cell lines K-562 and human lymphoma cell line U-937 were maintained in RPMI 1640 medium supplemented with 10% fetal bovine serum, sodium pyruvate, 2 mM L-glutamine, penicillin, and streptomycin. The cells were incubated at 37° C. in a humidified atmosphere of 5% CO2 in air (10). The Ehrlichs ascites carcinoma cells (EAC) were maintained in vivo in Swiss albino mice, by intraperitoneal (i.p.) transplantation of 2×10^6 cells/mouse every 15 days. Cells were obtained from the peritoneal fluid after 15 days, washed in 0.2M PBS and resuspended in RPMI medium supplemented with 10% FBS.
(§2) Inhibition of 3-(4, 5-dimethylthiozol-2-yl)-2, 5-diphenyltetrazolium bromide (MTT) reduction to insoluble formazan by mitochondrial dehydrogenase was used as a viability parameter for the cells and compared with untreated control. […] The reduced formazan was solubilised in DMSO and plates were analyzed by determining the A550 on Thermo [sequence]
In series [5] the test system is B16F10, K562, U937, rat C6 glioma, EAC, MOLT4 and SW480 cell lines. Kind of series: In vitro EC50 of free anticancer drugs by MTT. Type of series: cell-based. Conditions: free drug, 2 h treatment. Here is the method: The cells were treated with PC:SA liposome (20-350 μg/ml with respect to PC) or free DOX (500-1000 μg/ml) and free CAMPTOSAR (irinotecan hydrochloride, which is a semisynthetic derivative of camptothecin) (500-10,000 μg/ml). After 2 h of treatment effects on cell viability were determined by MTT assay. EC50 values were determined by nonlinear regression analysis of concentration-response data.

This is an account of results in patent publication US10426728B2, “Synergistic liposomal formulation for the treatment of cancer” (priority 2013, dated 2019).

Structures are written as SMILES. Where a name gives a salt, the structure may show the parent alone.

Procedure for SW480 cells: as §1, §2
Procedure for U937 cells: as §1, §2
Procedure for rat C6 glioma cells: as §1, §2

What is called viability is the share of living cells, or the viability signal relative to a control. Low values mean a greater loss of cells, high ones better survival. Regarding `CC[C@@]1(O)C(=O)OCc2c1cc1n(c2=O)Cc2cc3ccccc3nc2-1` [CPT, camptothecin], the killing effect result (with U937 cells; in the series on SW480 cells; in series [1]) was “no killing effect” each time. Moreover, the “green fluorescing monomers (JC-1)” value in the series with B16F10 cells [2] is recorded as 7%. Besides, the viability with rat C6 glioma cells came out at 71%; with B16F10 cells [3] (7 μg/ml free CPT), 38%; in series [4], 56%. In addition, the cells survived entry with B16F10 cells [3] (free CPT 3.9 μg/ml (REV equivalent) and 6.1 μg/ml (DRV equivalent)) is on record as “about 38%”.

By EC50 is commonly meant the concentration that produces a half-maximal response. In series [5], `CCc1c2c(nc3ccc(OC(=O)N4CCC(N5CCCCC5)CC4)cc13)-c1cc3c(c(=O)n1C2)COC(=O)[C@]3(O)CC` [irinotecan hydrochloride] had a concentration giving a half-maximal response (EC50) of 800 to 5000 µg/mL.
